Assay results from ChEMBL document CHEMBL6096719, “Kidney Targeting Smart Antibiotic Discovery: Multimechanism Pleuromutilins for Pyelonephritis Therapy” (J Med Chem, 2025).
The source made the active and inactive calls. No cut-off for these calls is given here.

Columns and labels:
Escherichia coli [1] = experiment: Antibacterial activity against Escherichia coli ATCC25922 infected in pyelonephritis C57BL/6 mouse model assessed as recovery of white blood cells count in blood at 3 to 10 mg/kg, iv qd for 3 days administered at 2 days post-infection; type: functional, organism-based; conditions: dose 3-10 mg/kg, time 3.0 day
[2] = Cmax in Sprague-Dawley rat at 5 mg/kg, iv; type: ADME, organism-based; conditions: in vivo
[3] = target: T1, Solute carrier family 22 member 2 (Homo sapiens, UniProt O15244); experiment: Inhibition of human OCT2 transfected in HEK293 cells assessed as decrease in intracellular ASP accumulation […] incubated for 10 mins followed by incubation with ASP for 5 mins by fluorescence based analysis; type: cell-based; conditions: hek293, 0.25 h, time 15 min
T1 sequence (O15244 whole entry): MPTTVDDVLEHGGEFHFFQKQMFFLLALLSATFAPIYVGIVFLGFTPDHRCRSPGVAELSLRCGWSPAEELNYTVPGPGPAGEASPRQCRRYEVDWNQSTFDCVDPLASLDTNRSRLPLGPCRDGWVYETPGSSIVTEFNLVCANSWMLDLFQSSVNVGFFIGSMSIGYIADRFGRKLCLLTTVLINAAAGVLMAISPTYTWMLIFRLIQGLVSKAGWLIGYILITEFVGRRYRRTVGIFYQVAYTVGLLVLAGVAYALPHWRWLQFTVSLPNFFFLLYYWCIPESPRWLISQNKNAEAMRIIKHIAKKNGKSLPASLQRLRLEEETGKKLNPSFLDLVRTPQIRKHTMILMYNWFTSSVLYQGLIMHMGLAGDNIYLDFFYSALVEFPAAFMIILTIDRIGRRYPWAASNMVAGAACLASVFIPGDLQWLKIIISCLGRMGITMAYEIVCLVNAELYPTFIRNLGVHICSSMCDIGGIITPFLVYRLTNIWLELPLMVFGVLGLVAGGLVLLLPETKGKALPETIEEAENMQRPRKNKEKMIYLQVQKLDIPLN

Staphylococcus aureus [4] = experiment: Antibacterial activity against methicillin-resistant Staphylococcus aureus ATCC33591 infected in systemic intraperitoneal infection Kunming mouse model assessed as increase in animal's survival rate at 20 mg/kg, ip treated at 1 hr post-infection and measured for 7 days; type: functional, organism-based; conditions: time 7.0 day
[5] = system: Mesomycoplasma hyopneumoniae; experiment: Anti-mycoplasma activity against Mycoplasma hyopneumoniae J NCTC10110 assessed as inhibition of bacterial growth incubated for 6 to 7 days by broth microdilution method; type: functional; conditions: time 6-7 day
[6] = Aqueous solubility of the compound incubated for 12 hrs by UV-Vis spectrophotometry; type: physicochemical; conditions: buffer
[7] = Tmax in Sprague-Dawley rat at 10 mg/kg, po; type: ADME, organism-based; conditions: in vivo
[8] = system: Staphylococcus epidermidis; experiment: Antibacterial activity against methicillin-resistant Staphylococcus epidermidis ATCC 51625 assessed as inhibition of bacterial growth incubated for 24 hrs by broth microdilution method; type: functional
Staphylococcus aureus [9] = experiment: Antibacterial activity against Staphylococcus aureus ATCC 29213 assessed as inhibition of bacterial growth incubated for 24 hrs by broth microdilution method; type: functional
Enterococcus = experiment: Antibacterial activity against vancomycin-resistant Enterococcus 80 assessed as inhibition of bacterial growth incubated for 24 hrs by broth microdilution method; type: functional
[10] = Observed apparent oral clearance in Sprague-Dawley rat at 10 mg/kg, po; type: ADME, organism-based; conditions: in vivo
[11] = Drug uptake in Sprague-Dawley rat liver at 5 mg/kg, iv measured for 6 hrs by LC-MS/MS analysis; type: ADME, organism-based; conditions: in vivo
Staphylococcus aureus [12] = experiment: Antibacterial activity against methicillin-resistant Staphylococcus aureus ATCC33591 infected in systemic intraperitoneal infection Kunming mouse model assessed as increase in animal's survival rate at 5 mg/kg, ip treated at 1 hr post-infection and measured on day 7; type: functional; conditions: ATCC33591, 168 h, time 7 day
Staphylococcus aureus [13] = experiment: Antibacterial activity against methicillin-resistant Staphylococcus aureus ATCC33591 infected in systemic intraperitoneal infection Kunming mouse model assessed as decrease in bacterial colonies in lungs administered intraperitoneally at 1 hr post-infection and measured after 7 days; type: functional, organism-based; conditions: dose 5-20 mg/kg, route ip, time 7.0 day
Staphylococcus aureus [14] = experiment: Antibacterial activity against methicillin-resistant Staphylococcus aureus 206 assessed as inhibition of bacterial growth incubated for 24 hrs by broth microdilution method; type: functional
Cell membrane [15] = experiment: Disruption of cell membrane in Escherichia coli ATCC25922 assessed as decrease in intracellular ATP content at 0.125 to 0.25 ug/ml incubated for 30 mins by luminescence based analysis; conditions: dose 0.125-0.25 µg/ml
Staphylococcus aureus [16] = experiment: Antibiofilm activity against methicillin-resistant Staphylococcus aureus ATCC33591 assessed as eradication of biofilms at 0.5 ug/ml incubated for 4 hrs by field emission scanning electron microscopy; type: functional, organism-based; conditions: dose 0.5 µg/ml
Escherichia coli [17] = experiment: Antibacterial activity against Escherichia coli CMCC 44103 assessed as inhibition of bacterial growth incubated for 24 hrs by broth microdilution method; type: functional
[18] = Cytotoxicity against human A549 cells assessed as reduction in cell viability incubated for 24 hrs by CCK8 assay; type: toxicity, cell-based
Escherichia coli [19] = experiment: Antibiofilm activity against Escherichia coli ATCC25922 assessed as disruption of preformed biofilms at 0.5 ug/ml incubated for 24 hrs with preformed biofilms by crystal violet staining based analysis; type: functional; conditions: dose 0.5 µg/ml
Cell membrane [20] = experiment: Disruption of cell membrane in methicillin-resistant Staphylococcus aureus ATCC33591 assessed as induction of cell death by measuring increase in propidium iodide fluorescence intensity at 0.5 ug/ml incubated for 2 hrs by fluorescence field microscopy; type: subcellular; conditions: dose 0.5 µg/ml
Escherichia coli [21] = experiment: Antibacterial activity against Escherichia coli ATCC25922 infected in pyelonephritis C57BL/6 mouse model assessed as recovery of neutrophils count in blood at 3 to 10 mg/kg, iv qd for 3 days administered at 2 days post-infection; type: functional, organism-based; conditions: dose 3-10 mg/kg, time 3.0 day
Cell membrane [22] = experiment: Disruption of cell membrane in methicillin-resistant Staphylococcus aureus ATCC33591 assessed as decrease in intracellular ATP content at 0.125 to 0.25 ug/ml incubated for 30 mins by luminescence based analysis; conditions: dose 0.125-0.25 µg/ml
Chlamydia pneumoniae = experiment: Anti-mycoplasma activity against Chlamydophila pneumoniae AR39 ATCC53592 assessed as inhibition of bacterial growth incubated for 3 to 5 days by broth microdilution method; type: functional; conditions: time 3-5 day
Staphylococcus aureus [23] = experiment: Antibacterial activity against methicillin-resistant Staphylococcus aureus 575 assessed as inhibition of bacterial growth incubated for 24 hrs by broth microdilution method; type: functional
Escherichia coli [24] = experiment: Antibiofilm activity against Escherichia coli ATCC25922 assessed as eradication of biofilms at 0.5 ug/ml incubated for 4 hrs by field emission scanning electron microscopy; type: functional, organism-based; conditions: dose 0.5 µg/ml
[25] = target: Solute carrier family 22 member 1 (Homo sapiens, UniProt O15245); experiment: Substrate activity at human OCT1 transfected in HEK293 cells assessed as increase in intracellular drug content at 100 uM measured after 5 mins; type: ADME, cell-based; conditions: hek293, 5 min
Chain of Solute carrier family 22 member 1 (O15245 whole entry): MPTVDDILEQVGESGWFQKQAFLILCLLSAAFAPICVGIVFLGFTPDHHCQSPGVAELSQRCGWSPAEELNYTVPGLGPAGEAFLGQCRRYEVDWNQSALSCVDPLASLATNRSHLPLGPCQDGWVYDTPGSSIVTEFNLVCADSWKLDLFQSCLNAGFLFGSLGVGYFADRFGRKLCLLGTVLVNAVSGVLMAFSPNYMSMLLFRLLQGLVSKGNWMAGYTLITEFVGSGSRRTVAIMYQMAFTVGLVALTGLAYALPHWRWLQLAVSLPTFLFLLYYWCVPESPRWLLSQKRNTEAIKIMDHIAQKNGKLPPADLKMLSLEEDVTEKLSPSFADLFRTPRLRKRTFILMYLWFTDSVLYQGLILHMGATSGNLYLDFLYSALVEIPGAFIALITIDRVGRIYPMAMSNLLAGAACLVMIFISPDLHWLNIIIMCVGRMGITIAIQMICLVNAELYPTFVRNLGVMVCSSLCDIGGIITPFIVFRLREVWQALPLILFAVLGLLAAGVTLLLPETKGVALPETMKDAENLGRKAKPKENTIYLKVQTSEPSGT

[26] = Oral bioavailability in Sprague-Dawley rat at 10 mg/kg; type: ADME, organism-based; conditions: in vivo
Escherichia coli [27] = experiment: Antibacterial activity against Escherichia coli ATCC 25922 assessed as inhibition of bacterial growth incubated for 24 hrs by broth microdilution method; type: functional
[28] = target: T1, Solute carrier family 22 member 2; experiment: Substrate activity at human OCT2 transfected in HEK293 cells assessed as increase in intracellular drug content at 100 uM measured after 5 mins; type: ADME, cell-based; conditions: hek293, 5 min

With `C=C[C@]1(C)C[C@@H](OC(=O)CSc2nc3cc[n+](Cc4ccc(C)cc4)cc3[nH]2)[C@]2(C)[C@H](C)CC[C@]3(CCC(=O)[C@H]32)[C@@H](C)[C@@H]1O.[Br-]` the Activity (Escherichia coli [1]) was “Active”, the Cmax [2] was 25600 ng/mL and the “inhibition (INH)” value [3] was “Not_active”. The Activity (Staphylococcus aureus [4]) was “Active; Slight Decrease In Activity Compared To Lower Dose Of Drug Concentration Observed; Diminished Therapeutic Effects To Drug At Higher Concentrations Observed”, the MIC [5] was less than 0.04 µg/mL and the solubility at 12 h [6] was 573 µg/mL. For the same molecule, the Tmax [7] was 30 min, the MIC [8] was less than 1 µg/mL and the MIC (Staphylococcus aureus [9]) was less than 1 µg/mL. For the same molecule, the MIC (Enterococcus) was 4 µg/mL, the CL/F [10] was 10.5 mL/min/kg and the Drug uptake [11] was “Active”. For the same molecule, the survival at 5 mg/kg (Staphylococcus aureus [12]) was 80%, the Activity (Staphylococcus aureus [13]) was “Active; Superior Efficacy Compared To Valnemulin Observed” and the MIC (Staphylococcus aureus [14]) was 1 µg/mL. The Activity (Cell membrane [15]) was “Active”, the Activity (Staphylococcus aureus [16]) was “Active; Almost Complete Eradication Of Bacteria Observed” and the MIC (Escherichia coli [17]) was less than 1 µg/mL. For the same molecule, the CC50 at 24 h [18] was greater than 100 µM, the Activity (Escherichia coli [19]) was 88.55% and the Activity (Cell membrane [20]) was “Active”. The Activity (Escherichia coli [21]) was “Active”, the Activity (Cell membrane [22]) was “Active” and the MIC (Chlamydia pneumoniae) was less than 0.04 µg/mL. For the same molecule, the MIC (Staphylococcus aureus [23]) was 1 µg/mL, the Activity (Escherichia coli [24]) was “Active; Almost Complete Eradication Of Bacteria Observed” and the Activity [25] was “Active”. For the same molecule, the bioavailability [26] was 47.9%, the MIC (Escherichia coli [27]) was less than 1 µg/mL and the Activity [28] was “Active”.
